Molecular target: T1, integrins haα4 and β1 (VLA-4) expressed on CHO cells (Homo sapiens, UniProt P05556+P13612)
T1 construct: expressed in transfected cells; host or cells: CHO cells
Assay: In vitro Evaluation Test (1): binding of Eu3+-hVCAM-1 D1D7-IgG to CHO cells expressing integrins α4 and β1
Settings: inhibition of Eu3+-hVCAM-1 D1D7-IgG binding to CHO cells expressing α4β1; Ki calculated from IC50
Method: CHO cells forcedly expressed by the transduction of integrins haα4 and β1 were seeded in a Coster 3599 plate (3×10^4 cells/100 μl/well) and they were cultured for 2 days. After the medium was washed with buffer A* twice, 50 μl/well of Eu^3+-hVCAM-1 D1D7-IgG diluted to […] with an assay buffer ** was added. To the resulting well was added 50 μl/well of a test compound diluted with 2% DMS0-assay buffer (in the presence or absence of 6% human serum albumin) (to a well subjected to Scatchard analysis was added a solution diluted in another manner). After stirring for 5 minutes on a plate mixer, the plate was allowed to stand at room temperature for 1 hour. Then, the plate was washed four times with the buffer A and added with 100 μl/well of an enhancement reagent (DELFIA). The plate was shaken for 5 minutes on a plate mixer, followed by measurement of fluorescence intensity by a time-resolved fluorometer (DELFIA Wallac). From the binding ratio available by the following calculation formula: ((FT−FNS)−(FI−FNS))/(FT−FNS)×100, the IC50 (concentration inhibiting 50% of binding of CHO cells with hVCAM-1 D1D7-IgG) of the test compound was determined. In the above formula, FT means the fluorescence intensity of the well free of the test compound, FNS means the fluorescence intensity of the well free of the test compound and anti-hα4 antibody (SG/73), and FI means the fluorescence intensity of the well containing the test compound. The Kd indicating the binding strength and Bmax (maximum binding) were estimated within a range of 0.06 to 20 nM in accordance with the Scatchard analysis method.
The value Ki was calculated based on:
[formula] ((L) means a ligand concentration). (* buffer A: 25 mM HEPES (pH 7.5), 150 mM NaCl, 1 mM Ca^2+, 1 MM Mg^2+, 4 mM Mn^2+; ** assay buffer: 25 mM HEPES (pH 7.5), 150 mM NaCl, 1 mM Ca^2+, 1 mM Mg^2+, 4 mM Mn^2+, 0.1% BSA, 20 μM DTPA, with/without 6% ALBUMIN, HUMAN SERUM (C/N A-1653, SIGMA)) In vitro Evaluation Test (2)

T1 sequence (P13612 34-1032): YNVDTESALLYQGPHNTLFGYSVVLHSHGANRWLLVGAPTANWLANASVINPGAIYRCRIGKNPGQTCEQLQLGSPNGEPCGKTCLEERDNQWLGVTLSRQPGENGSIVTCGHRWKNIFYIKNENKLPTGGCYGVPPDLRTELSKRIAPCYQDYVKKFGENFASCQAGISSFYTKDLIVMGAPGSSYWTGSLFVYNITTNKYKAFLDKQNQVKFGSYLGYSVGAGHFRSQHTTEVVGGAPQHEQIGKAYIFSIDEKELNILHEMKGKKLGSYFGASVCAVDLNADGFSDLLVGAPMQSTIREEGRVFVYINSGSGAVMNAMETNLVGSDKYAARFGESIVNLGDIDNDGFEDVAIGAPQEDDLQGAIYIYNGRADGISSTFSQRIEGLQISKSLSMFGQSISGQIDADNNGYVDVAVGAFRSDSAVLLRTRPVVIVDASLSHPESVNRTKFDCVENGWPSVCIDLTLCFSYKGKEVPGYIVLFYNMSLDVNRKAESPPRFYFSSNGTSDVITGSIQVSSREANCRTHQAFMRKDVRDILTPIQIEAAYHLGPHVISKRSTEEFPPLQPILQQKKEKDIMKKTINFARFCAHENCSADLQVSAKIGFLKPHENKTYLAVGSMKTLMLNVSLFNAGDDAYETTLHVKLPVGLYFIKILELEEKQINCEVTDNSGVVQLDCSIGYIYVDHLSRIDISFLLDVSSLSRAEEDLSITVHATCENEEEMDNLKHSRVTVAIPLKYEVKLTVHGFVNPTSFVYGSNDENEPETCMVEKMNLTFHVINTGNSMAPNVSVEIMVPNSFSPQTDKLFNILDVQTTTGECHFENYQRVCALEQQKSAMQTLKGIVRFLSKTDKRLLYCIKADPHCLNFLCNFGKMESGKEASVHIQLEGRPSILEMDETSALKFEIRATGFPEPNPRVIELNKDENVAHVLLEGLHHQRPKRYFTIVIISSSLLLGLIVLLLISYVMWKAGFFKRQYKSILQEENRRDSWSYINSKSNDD
T1 sequence (P05556 21-798): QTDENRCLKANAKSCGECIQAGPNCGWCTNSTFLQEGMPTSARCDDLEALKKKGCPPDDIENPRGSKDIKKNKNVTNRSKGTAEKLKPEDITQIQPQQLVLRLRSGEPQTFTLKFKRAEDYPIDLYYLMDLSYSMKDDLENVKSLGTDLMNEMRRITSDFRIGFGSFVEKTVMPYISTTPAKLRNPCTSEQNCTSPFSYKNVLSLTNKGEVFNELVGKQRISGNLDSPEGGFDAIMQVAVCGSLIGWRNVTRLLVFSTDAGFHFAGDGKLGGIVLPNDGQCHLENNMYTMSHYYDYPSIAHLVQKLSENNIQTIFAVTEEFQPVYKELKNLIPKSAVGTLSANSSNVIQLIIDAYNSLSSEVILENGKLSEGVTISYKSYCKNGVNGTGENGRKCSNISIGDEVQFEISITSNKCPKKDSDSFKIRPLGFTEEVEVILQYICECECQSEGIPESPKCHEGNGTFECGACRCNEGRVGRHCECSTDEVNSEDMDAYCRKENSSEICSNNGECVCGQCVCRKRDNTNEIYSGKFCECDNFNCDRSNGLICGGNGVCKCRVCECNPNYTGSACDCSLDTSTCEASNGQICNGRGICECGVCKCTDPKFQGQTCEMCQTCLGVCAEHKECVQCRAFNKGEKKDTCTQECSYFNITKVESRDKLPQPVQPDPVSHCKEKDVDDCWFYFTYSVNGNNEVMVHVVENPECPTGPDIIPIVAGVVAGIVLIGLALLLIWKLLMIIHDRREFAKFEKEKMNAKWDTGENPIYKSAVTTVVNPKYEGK

| SMILES | Ki [µM] |
| --- | --- |
| CN(C)C(=O)CO[C@H]1C[C@@H](CO[C@H]2CC[C@H](C(=O)O)CC2)N(C(=O)Cc2cc(Cl)c(NC(=O)c3cn(C)c4ccccc34)cc2F)C1 [Example 120, trans-4-(1-((5-Chloro-2-fluoro-4-(1-methyl-3-indolylcarbonylamino)phenyl)acetyl)-(4S)-dimethylcarbamoylmethoxy-(2S)-pyrrolidinylmethoxy)-1-cyclohexanecarboxylic acid] | 0.0019 |
| Cc1ccccc1Nc1nc2ccc(CC(=O)N3C[C@@H](F)C[C@H]3C(=O)N3CCC(CC(=O)O)CC3)cc2o1 [Example 31, 1-((4S)-Fluoro-1-(2-(2-methylphenylamino)-6-benzoxazolylacetyl)-(2S)-pyrrolidinylcarbonyl)-4-piperidinylacetic acid] | 0.016 |
| Cc1ccccc1Nc1nc2ccc(CC(=O)N3C[C@H](O)C[C@H]3CO[C@H]3CC[C@H](C(=O)O)CC3)cc2o1 [Example 122, trans-4-((4R)-Hydroxy-1-((2-(2-methylphenylamino)-6-benzoxazolyl)acetyl)-(2S)-pyrrolidinylmethoxy)cyclohexanecarboxylic acid] | 0.029 |
| Cc1ccccc1Nc1nc2ccc(CC(=O)N3C[C@@H](S(=O)(=O)c4ccccc4)C[C@H]3CO[C@H]3CC[C@H](C(=O)O)CC3)cc2o1 [Example 124, trans-4-(1-((2-(2-Methylphenylamino)-6-benzoxazolyl)acetyl)-(4S)-phenylsulfonyl-(2S)-pyrrolidinylmethoxy)cyclohexanecarboxylic acid] | 0.0014 |
| Cc1cc(F)ccc1Nc1nc2ccc(CC(=O)N3C[C@@H](F)C[C@H]3CO[C@H]3CC[C@H](C(=O)O)CC3)c(F)c2o1 [Example 45, trans-4-(1-((2-(4-Fluoro-2-methylphenylamino)-7-fluoro-6-benzoxazolyl)acetyl)-(4S)-fluoro-(2S)-pyrrolidinylmethoxy)cyclohexanecarboxylic acid] | 0.0088 |
| Cc1ccccc1Nc1nc2ccc(CC(=O)N3C[C@@H](F)C[C@H]3CNc3ccc(C(=O)O)cc3)cc2o1 [Example 33, 4-(1-(2-(2-Methylphenylamino)-6-benzoxazolylacetyl)-(4S)-fluoro-(2S)-pyrrolidinylmethylamino)benzoic acid] | 0.031 |
| O=C(Cc1ccc2nc(N3CCc4ccccc43)oc2c1F)N1C[C@@H](F)C[C@H]1CO[C@H]1CC[C@H](C(=O)O)CC1 [Example 105, trans-4-(1-((7-fluoro-2-(1-indolinyl)-6-benzoxazolyl)acetyl)-(4S)-fluoro-(2S)-pyrrolidinylmethoxy)cyclohexanecarboxylic acid] | 0.042 |
| Cn1cc(-c2nc3ccc(CC(=O)N4C[C@@H](F)C[C@H]4CN[C@H]4CC[C@H](C(=O)O)CC4)c(F)c3o2)c2ccccc21 [Example 108, trans-4-(N-(1-((7-Fluoro-2-(1-methyl-3-indolyl)-6-benzoxazolyl)acetyl)-(4S)-fluoro-(2S)-pyrrolidinylmethyl)amino)cyclohexanecarboxylic acid] | 0.021 |
| COC[C@@H]1C[C@@H](O[C@H]2CC[C@H](C(=O)O)CC2)CN1C(=O)Cc1ccc2nc(Nc3cc(F)ccc3C)oc2c1F [Example 156, trans-4-(1-((2-(5-Fluoro-2-methylphenylamino)-7-fluoro-6-benzoxazolyl)acetyl)-(2S)-methoxymethyl-(4R)-pyrrolidinyloxy)cyclohexanecarboxylic acid] | 0.043 |
| COC[C@@H]1CC[C@@H](CO[C@H]2CC[C@H](C(=O)O)CC2)N1C(=O)Cc1ccc2nc(Nc3cc(F)ccc3C)oc2c1F [Example 167, trans-4-(1-((2-(5-Fluoro-2-methylphenylamino)-7-fluoro-6-benzoxazolyl)acetyl)-(5S)-methoxymethyl-(2S)-pyrrolidinylmethoxy)cyclohexanecarboxylic acid] | 0.00087 |
| O=C(Cc1ccc2nc(-c3cccc4ccccc34)oc2c1)N1C[C@@H](F)C[C@H]1CO[C@H]1CC[C@H](C(=O)O)CC1 [Example 95, trans-4-(1-(2-(1-Naphthyl)-6-benzoxazolylacetyl)-(4S)-fluoro-(2S)-pyrrolidinylmethoxy)cyclohexanecarboxylic acid] | 0.034 |
| Cc1ccccc1Nc1nc2ccc(CC(=O)N3CC[C@@H](Oc4ccc(C(=O)O)cc4)C3)cc2o1 [Example 34, 4-(1-(2-(2-Methylphenylamino)-6-benzoxazolylacetyl)-(3R)-pyrrolidinyloxy)benzoic acid] | 0.026 |
| Cc1cc(CC(=O)N2C[C@@H](F)C[C@H]2CO[C@H]2CC[C@H](C(=O)O)CC2)ccc1Nc1nc2ccccc2o1 [Example 50, trans-4-(1-(4-(2-Benzoxazolyl)amino-3-methylphenylacetyl)-(4S)-fluoro-(2S)-pyrrolidinylmethoxy)cyclohexanecarboxylic acid] | 0.013 |
| Cn1cc(C(=O)Nc2cc(F)c(CC(=O)N3C[C@@H](F)C[C@H]3CN[C@H]3CC[C@H](C(=O)O)CC3)cc2Cl)c2ccccc21 [Example 107, trans-4-(N-(1-((5-Chloro-2-fluoro-4-((1-methyl-3-indolylcarbonyl)amino)phenyl)acetyl)-(4S)-fluoro-(2S)-pyrrolidinylmethyl)amino)cyclohexanecarboxylic acid] | 0.011 |
| Cc1ccccc1Nc1nc2ccc(CC(=O)N3CC=C[C@H]3COc3ccc(C(=O)O)cc3)cc2o1 [Example 151, 4-(3,4-Dehydro-1-((2-(2-methylphenylamino)-6-benzoxazolyl)acetyl)-(2S)-pyrrolidinylmethoxy)benzoic acid] | 0.037 |
| Cn1cc(C(=O)Nc2cc(F)c(CC(=O)N3C[C@@H](F)C[C@H]3CO[C@H]3CC[C@H](C(=O)O)CC3)cc2Cl)c2ccc(F)cc21 [Example 73, trans-4-(1-((5-Chloro-2-fluoro-4-((6-fluoro-1-methyl-3-indolylcarbonyl)amino)phenyl)acetyl)-(4S)-fluoro-(2S)-pyrrolidinylmethoxy)cyclohexanecarboxylic acid] | 0.051 |
| Cc1ccccc1Nc1nc2ccc(CC(=O)N3C[C@@H](F)C[C@H]3COc3ccc(C(=O)O)cc3)c(F)c2o1 [Example 6, 4-((2S,4S)-1-(7-Fluoro-2-(2-methylphenylamino)-6-benzoxazolylacetyl)-4-fluoro-2-pyrrolidinylmethoxy)benzoic acid] | 0.014 |
| Cc1ccc(F)cc1Nc1nc2ccc(CC(=O)N(C)[C@@H](C)CO[C@H]3CC[C@H](C(=O)O)CC3)c(F)c2o1 [Example 145, trans-4-((2S)-((7-Fluoro-2-((5-fluoro-2-methylphenyl)amino)-6-benzoxazolyl)-N-methylacetamido)-1-propoxy)-1-cyclohexanecarboxylic acid] | 0.018 |
| Cn1cc(-c2nc3ccc(CC(=O)N4CCC[C@H]4CO[C@H]4CC[C@H](C(=O)O)CC4)cc3o2)c2ccc(F)cc21 [Example 131, trans-4-(1-((2-(6-Fluoro-1-methyl-3-indolyl)-6-benzoxazolyl)acetyl)-(2S)-pyrrolidinylmethoxy)-1-cyclohexanecarboxylic acid] | 0.017 |
| COc1cc(CC(=O)N2C[C@@H](F)C[C@H]2COc2ccc(C(=O)O)cc2)cc2oc(Nc3ccccc3C)nc12 [Example 3, 4-((4S)-Fluoro-1-(4-methoxy-2-(2-methylphenylamino)-6-benzoxazolylacetyl)-(2S)-pyrrolidinylmethoxy)benzoic acid] | 0.04 |
| O=C(Nc1ccc(CC(=O)N2C[C@@H](F)C[C@H]2CO[C@H]2CC[C@H](C(=O)O)CC2)cc1Cl)c1nccc2ccccc12 [Example 80, trans-4-(1-((3-Chloro-4-((1-isoquinolinylcarbonyl)amino)phenyl)acetyl)-(4S)-fluoro-(2S)-pyrrolidinylmethoxy)cyclohexanecarboxylic acid] | 0.012 |
| Cn1cc(C(=O)Nc2cc(F)c(CC(=O)N3C[C@@H](OC4CCCCC4)C[C@H]3CO[C@H]3CC[C@H](C(=O)O)CC3)cc2Cl)c2ccccc21 [Example 119, trans-4-(1-((5-Chloro-2-fluoro-4-(1-methyl-3-indolylcarbonylamino)phenyl)acetyl)-(4S)-cyclohexyloxy-(2S)-pyrrolidinylmethoxy)cyclohexanecarboxylic acid] | 0.0059 |
| CC(=O)N(C)[C@H]1C[C@@H](CO[C@H]2CC[C@H](C(=O)O)CC2)N(C(=O)Cc2cc(Cl)c(NC(=O)c3cn(C)c4ccccc34)cc2F)C1 [Example 142, trans-4-(1-((5-Chloro-2-fluoro-4-(1-methyl-3-indolylcarbonylamino)phenyl)acetyl)-(4S)-(N-methylacetamido)-(2S)-pyrrolidinylmethoxy)-1-cyclohexanecarboxylic acid] | 0.018 |
